Target: T1, choline kinase beta (CKβ) (Homo sapiens, UniProt Q9Y259)
T1 construct: gene CHKB; recombinant CKβ, in vitro phosphorylated by PKA (Ser39/Ser40)
Assay: PK-LDH coupled enzyme assay, IC50 at […] choline converted to Ki
Format: biochemical

T1 sequence (Q9Y259 2-395): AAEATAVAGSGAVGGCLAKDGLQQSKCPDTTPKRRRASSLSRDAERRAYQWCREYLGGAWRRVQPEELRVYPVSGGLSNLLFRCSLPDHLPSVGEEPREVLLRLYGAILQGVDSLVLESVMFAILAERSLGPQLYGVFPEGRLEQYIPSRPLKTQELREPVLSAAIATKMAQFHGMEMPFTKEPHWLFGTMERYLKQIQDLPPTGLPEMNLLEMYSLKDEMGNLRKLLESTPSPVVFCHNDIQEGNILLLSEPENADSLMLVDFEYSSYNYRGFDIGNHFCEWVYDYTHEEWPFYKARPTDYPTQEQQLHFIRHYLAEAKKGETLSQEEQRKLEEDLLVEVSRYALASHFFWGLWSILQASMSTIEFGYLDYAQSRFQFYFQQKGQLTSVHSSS

C[N+]1(C)CCOC(O)(c2ccc(-c3ccc(C4(O)C[N+](C)(C)CCO4)cc3)cc2)C1 (stereo not shown) [HC-3, Hemicholinium-3]
Ki: 4.7 µM

From PMC4858151, “Phosphorylation of Human Choline Kinase Beta by Protein Kinase A: Its Impact on Activity and Inhibition” (PLoS ONE, 2016)
